Reference: patent US20220145303A1, “FRAGILE X MENTAL RETARDATION PROTEIN INTERFERING OLIGONUCLEOTIDES AND METHODS OF USING SAME” (Nogra Pharma Limited, priority 2019, published 2022)

Columns and labels:
HCT-116 cells = test: Cell death by AnnexinV/PI flow cytometry in HCT-116 cells; assay type: cell-based, human; conditions: 48 hours, AS 0.5 nM and 100 nM, FIG. 3H
Description: Cells were transfected with either FMRP antisense oligonucleotide (AS)(final concentration 0.5 nM and 100 nM) or FMRP sense oligonucleotide (S)(final concentration 100 nM). After 24 hours (FIGS. 3E, 3F, 3J and 3K) or 48 hours (FIG. 3H), cells were collected, washed two times in Annexin V (AV) buffer, stained with FITC-AnnexinV (final dilution 1:100; Immunotools, Friesoythe, Germany) according to the manufacturer's instructions, and incubated with […] of propidium iodide (PI) for 30 min at 4° C. Cells were also transfected with either FMRP sense oligonucleotide or FMRP AS oligonucleotide (final concentration 100 nM) for 36 hours and analyzed for activated caspase 3 and caspase 8. As positive and negative controls, cells were treated, respectively, with staurosporin (final concentration 1 μM, Sigma-Aldrich Milan, Italy) or Q-VD-OPh (a pan-caspase inhibitor; final concentration 1 μM) (R&D Systems, Inc, Minneapolis, Minn.). Additionally, 36 hours (FIGS. 4F and 4G) or 48 hours post-transfection (FIGS. 4D and 4E), cells were pulsed with […] bromodeoxyuridine for 60 minutes, fixed in 70% cold ethanol, and stored at −20° C. for at least 3 hours. […] Fluorescence was measured using Gallios Flow Cytometer (Beckman Coulter, Life Sciences, Pasadena, Calif., USA) and analyzed using Kaluza software (Beckman Coulter). […]

RIPK1 = test: Western blot of RIPK1 and phospho-RIPK1 after FMRP antisense treatment; assay type: cell-based; conditions: human CRC cell lines, 24 hours
Description: To confirm the association of FMRP with components of the necroptosis pathway, cells were left untreated or transfected with either FMRP antisense oligonucleotide (final concentration 0.5 nM and 100 nM) or FMRP sense oligonucleotide (final concentration 100 nM); incubated with a pMLKL inhibitor (necrosulfonamide, NSA; final concentration 1 μM)(Calbiochem); or a pRIPK1 inhibitor (necrostatinl, NEC1; final concentration 10 μM)(Cayman Chemical, Ann Arbor, Mich. USA). After 24 hours cells were collected and analyzed by Western blot, or stained with FITC-Annexin V and PI for flow cytometry analysis, as previously described in Examples 1-3.

Q: With “5′-TCCACCACCAGCTCCTCCAT-3′ (all phosphorothioate, sugars by position and methylation of C not given here) [FMRP antisense oligonucleotide, Phosphorothioate single-stranded antisense oligonucleotides complementary to human FMRP]” as the substance, how does the “number of AnnexinV+ or AnnexinV+ PI+ cells” value (HCT-116 cells) read?
A: The value was “neither HCT-116 cells nor HCRC-1ct cells treated with FMRP antisense oligonucleotide exhibited an increased number”.

Q: What about the “total protein expression levels of RIPK1” value (RIPK1; AS 0.5 nM and 100 nM, FIG. 6A) of the same substance?
A: Its value is “increased the total protein expression levels of RIPK1”.

Q: And the “phosphorylation of RIPK1” value (RIPK1; FIGS. 6A, 6B)?
A: The value was “increased phosphorylation”.
